Source: US20060160869A1, “Ubiquitin ligase inhibitors” (Rigel Pharmaceuticals, Inc., priority 2005, published 2006)

Key:
DLD-1 cells = assay: PAD anti-proliferation assay, DLD-1; type: cell-based; details: Homo sapiens, 48 hours
HCT116 cells = assay: PAD anti-proliferation assay, HCT; type: cell-based; details: Homo sapiens, HCT-116, 48 hours
Description: A549 (ATCC# CCL 185), HeLa (ATCC# CCL 2), HCT116 (ATCC# CCL-247), and H 1299 (ATCC# CRL-5803) cells were maintained in T175 flasks following the ATCC recommended media and handling procedures. Flasks reaching approximately 70% confluency were trypsinized and resuspended in RPMI media (Cell Gro catalog number 10 040 CM) modified to contain 5% FBS, 100 ug/mlPen/Strep (Cell Gro catalog number 30 002 CL), and 0.3 mg/ml L Glutamine (Cell Gro catalog number 25 003 CL). A 20,000 cells/ml solution was made for plating. Cells were plated in black Packard 96 well plates by placing 100 μl per well (2,000 cells per well).
Compounds and additional media were added 24′ hours after cell plating. A compound master plate was created with concentrations 500 times greater than the final concentration added to the cells. All compound testing was done in duplicate using 3 fold dilutions starting with 10 mM. All outside wells (and 4 internal wells) were DMSO controls. Taxol and at least one additional control were run on all plates. Three microliters of the compound master plate were added to deep well blocks containing 750 μl of RPMI media. One hundred microliters were transferred from the compound/media deep well blocks to the plated cells resulting in a 500 fold dilution of the compounds. Cells were grown at 37° C., 5% CO2 for 48 hours.
Cells to be analyzed by photography were fixed and stained. One hundred microliters of media were removed and 100 μl of 2% paraformaldehyde was added to each well. Plates were left on the benchtop for 45 minutes. A staining solution containing 1.55 μl of 1 mg/ml DAPI added to 18.75 ml PBS was warmed for 15 minutes at 37° C. The cells were aspirated prior to washing with 100 μl of PBS. Seventy microliters of PBS were aspirated and 170 μl of the DAPI solution were added to each well of fixed cells. Plates were left at room temperature for one hour then aspirated and washed twice with 100 μl of PBS. The stained cells were left at 4° C. for a minimum of 16 hours before photographic analysis with Array Scan II (Cellomics). Analysis of the photographic images to determine numbers of live cells (proliferation), apoptotic cells and dead cells, were according to the methods described in U.S. Provisional Patent Application Ser. No. 60/406,714, which incorporated herein in its entirety.

[1] = tested on: GADD45 promoter (DNA damage response reporter); assay: H1299 GADD45 reporter system; type: cell-based; details: human; p53 −ve cell type; maximal fold induction over DMSO control; read-out: Fold Induction, H1299GADD45
Text: (§1) Stable lines of U2OS (osteosarcoma; Wild-type p53 positive), HCT116 (colorectal carcinoma; Wild-type p53 positive) and H1299 (lung non-small cell carcinoma; p53 null) carrying p53-dependent transcriptional regulatory element linked to a Luciferase reporter gene and H1299 carrying a 5′-regulatory region of GADD45 linked to Luciferase were used.
(§2) Day 1: Cells were re-plated into 96-well plates at suitable densities to make 50-60% confluence on Day 2. The plating densities are as follows: 7.5×10^3 cells/well (or 2.5×10^4 cells/cm^2) for U2OS; 1.5×10^4 cells/well (or 5.0×10^4 cells/cm^2) for HCT116; and 1.0×10^4 cells/well (or 3.3×10^4 cells/cm^2) for H1299.
(§3) Day 2: The compounds or control drugs were diluted in dimethyl sulfoxide (DMSO) and added to the wells to create 6-points/2-fold serial dilution (20, 10, 5, 2.5, 1.25, 0.625 and 0 μM) for each compound. The DMSO concentration was adjusted to 0.2% in all wells.
(§4) Day 3: Twenty to 24 hours after compound addition, cells were twice washed with PBS and lysed with Glo-lysis buffer (100 μl/well, Promega; Cat#E2661). Plates were subjected to gentle agitation on a table-top shaker for 5 minutes at room temperature. Fifty μl of lysate was transferred to an assay plate to test for luciferase activity and mixed with 2× assay buffer (Promega; Cat# E1483). The reaction mixture was left at room temperature for 2 minutes and then luminescence was measure by a luminometer (Victor™, 1420 Multilabel Counter, Wallac).
(§5) Data analysis was done on Excel software (Microsoft). Values in Table 4 represent maximal fold induction over negative control (DMSO only) and are the mean of at least duplicate experiments.
H1299 GADD45 Reporter System is a system in which GADD45 is induced in p53-null cells in response to DNA damage. This cell line expresses the 5′-regulatory region of the GADD45 gene. This assay provides a way to rule out the possibility of DNA damage due to the compounds.

[2] = tested on: p53 reporter system in p53 null H1299 cell line; assay: p53-dependent transcription reporter assay, H1299RE; type: cell-based; details: p53 −ve cell type; maximal fold induction over DMSO control
Text: as §1, §2, §3, §4, §5
H1299RE is p53 null […] cell line containing p53 reporter system. Numbers indicate the selectivity of the compound with smaller number being higher selectivity.

E1 and E2 (UBCH5a) = E1 and E2 (UBCH5a) (Homo sapiens, UniProt P22314+P51668); assay: E1/E2 plate enzyme counter assay; type: biochemical; details: Table 3, counter assay
Text: E1/E2 is E1 and E2 (UBCH5a) enzyme counter assay.

IC50 (DLD-1 cells) [µM] | IC50 (HCT116 cells) [µM] | Fold Induction of p53 activity, H1299RE [2] | E1/E2 plate μM (E1 and E2 (UBCH5a)) | SMILES | fold induction [1]
1 to 20 | 1 to 20 |  |  | O=C(c1ccc(CN(Cc2cccc(OC(F)(F)F)c2)c2nc(-c3ccccc3)cs2)cc1)N1CCNCC1 [compound 275] | 
1 to 20 | 1 to 20 |  |  | O=C(c1ccc(CN(Cc2cccc(OC(F)(F)F)c2)c2nc(-c3ccc4ccccc4c3)cs2)cc1)N1CCNCC1 [compound 282, 4-(2-naphthyl)-N-[4-(piperazin-1-ylcarbonyl)benzyl]-N-[3-(trifluoromethoxy)benzyl]-1,3-thiazol-2-amine] | 
 | 1 to 20 | c (c means 1.5 or less) |  | COc1cccc(-c2csc(N(Cc3ccc(C(=O)N4CCNCC4)cc3)Cc3cccc(OC(F)(F)F)c3)n2)c1 [compound 351] | ≤ 1.5
 |  | c (c means 1.5 or less) |  | COc1cccc(-c2csc(N(CCOc3ccccc3)Cc3ccc(C(=O)N4CCNCC4)cc3)n2)c1 [compound 352] | ≤ 1.5
 | 1 to 20 | c (c means 1.5 or less) |  | COc1cccc(CN(Cc2ccc(C(=O)N3CCNCC3)cc2)c2nc(-c3ccc(Br)cc3)cs2)c1OC [compound 353] | ≤ 1.5
1 to 20 | 1 to 20 | c (c means 1.5 or less) | + (+ means 20 μM or greater) | O=C(c1ccc(CN(CCOc2ccccc2)c2nc(-c3ccc(Cl)c(Cl)c3)cs2)cc1)N1CCNCC1 [compound 360] | ≤ 1.5
